Here are results for 55 compounds from US20100113276A1, “USE OF N2-PHENYLAMIDINES AS HERBICIDES” (BAYER CROPSCIENCE AG, priority 2007, published 2010).

Each structure is given as a SMILES string.

A short description of the data set: log P by HPLC on reversed-phase column (C18), EEC Directive 79/831 Annex V.A8. The data set is classed as physicochemical. As to conditions: C18, 40° C.; for log p H3PO4: 0.1% aqueous phosphoric acid / acetonitrile; for log p HCO2H: aqueous formic acid / acetonitrile. The procedure:
The log P data were determined in accordance with the EEC Directive 79/831 Annex V.A8 by HPLC (High Performance Liquid Chromatography) on a reversed-phase column (C18) using the following methods: […]
Calibration was carried out with the help of unbranched alkan-2-ones (consisting of 3 to 13 or 16 carbon atoms) with known logP values (determination of the logP values via the retention times by means of linear interpolation between two subsequent alkanones).

As for `CC(C)(C)c1cccc(Oc2cc(Cl)c(N=CN3CCCCC3)cc2Cl)c1` [compound 809], the “log p H3PO4” value came to 2.81, the “log p HCO2H” value is on record as 3.04 and the log p neutral amounted to 6.41.
In turn, `CCN(C)C=Nc1cc(C)c(-c2ccc(Cl)c(C)c2)cc1C` [compound 398] registered a log p acidic of 2.27 and a log p neutral of 5.59.
Consider `CCN(C)C=Nc1cc(C)c(OCc2sc(Cl)nc2Cl)cc1C` [compound 555], for which the “log p H3PO4” value was 1.99.
Take `CCC(C)N(C)C=Nc1cc(Cl)c(Oc2ccc(Cl)c(C(C)(C)C)c2)cc1C` (stereo not drawn) [compound 579]: the log p acidic is on record as 3.19, the “log p HCO2H” value was determined as 3.19 and the log p neutral is reported as 7.36.
`Cc1cc(Oc2cc(Cl)cc(C(F)(F)F)c2)c(Cl)cc1N=CN1CCCCC1` [compound 568] registered a log p acidic of 2.86.
Turning to `CCCN(C)C=Nc1cc(C)c(Oc2ccc(Br)c(C(C)C)c2)cc1C` [compound 356], the log p acidic was found to be 2.93 and the log p neutral was found to be 7.01.
As for `CCN(C)C=Nc1cc(C)c(Oc2ccc(Cl)c(C(C)(C)C)c2)cc1Cl` [compound 903], the “log p H3PO4” value was 2.98, the “log p HCO2H” value is 2.8 and the log p neutral came to 6.54.
The compound `Cc1cc(Oc2nc(C3(Cl)CC3)ns2)c(Cl)cc1N=CN1CCCCC1` [compound 614] registered a log p acidic of 1.98.
Turning to `CCc1cc(Oc2cc(C)c(N=CN3CCCCC3)cc2Cl)ccc1Cl` [compound 587], the “log p HCO2H” value turned out to be 2.74 and the log p neutral is on record as 6.73.
For the compound `Cc1cc(N=CN(C)C(C)C)c(Cl)cc1Oc1ccc(Cl)c(C(C)C)c1` [compound 899], the “log p H3PO4” value is 3.07, the “log p HCO2H” value is listed as 2.92 and the log p neutral is 6.45.
The compound `Cc1cc(Oc2cc(Cl)cc(C(F)(F)F)c2)c(Cl)cc1N=CN1CCCC1` [compound 567] showed a log p acidic of 2.66.
Regarding `Cc1cc(N=CN(C)C(C)C)c(Cl)cc1Oc1ccc(Cl)c(C(F)(F)F)c1` [compound 894], the “log p H3PO4” value was determined as 1.73 and the “log p HCO2H” value stood at 2.55.
Turning to `CCN(C)C=Nc1cc(Cl)c(Oc2ccc(Cl)c(C(C)(C)C)c2)cc1Cl` [compound 811], the “log p H3PO4” value was found to be 3.16, the “log p HCO2H” value was 3.17 and the log p neutral was 6.64.
`CCN(C)C=Nc1cc(Cl)c(Oc2ccc(Cl)c(C(C)(C)C)c2)cc1C` [compound 388]: the “log p HCO2H” value was 3.02 and the log p neutral stood at 6.70.
`Cc1cc(Oc2ccc(Br)c(C(C)C)c2)c(Cl)cc1N=CN(C)C(C)C` [compound 591] came in with a log p acidic of 3.21 and a log p neutral of 6.92.
Take `Cc1cc(N=CN(C)C)c(Cl)cc1Oc1ccc(Cl)c(C(C)(C)C)c1` [compound 902]: the “log p H3PO4” value is 1.57, the “log p HCO2H” value is recorded as 2.65 and the log p neutral was found to be 6.11.
In the case of `CCN(C)C=Nc1cc(C)c(Oc2ccc(Cl)c(C(F)(F)F)c2)cc1C` [compound 34], the log p acidic is listed as 2.38.
On the same count and under the same terms, the figure for `COc1cc(-c2ccc(C)cc2)c(OC)cc1N=CN(C)C` [compound 998] is 1.76.
For the compound `Cc1cc(N=CN(C)C(C)C)c(Cl)cc1Oc1cccc(C(C)(C)C)c1` [compound 871], the “log p H3PO4” value is reported as 2.79, the “log p HCO2H” value amounted to 2.54 and the log p neutral came to 5.84.
As to `CCN(C)C=Nc1cc(C)c(CCc2ccc(C(F)(F)F)cc2)cc1C` [compound 250], the “log p HCO2H” value is given as 2.45.
With `Cc1cc(Oc2ncnc(Oc3ccc(Cl)cc3)c2F)c(Cl)cc1N=CN1CCCCC1` [compound 622], the “log p HCO2H” value was found to be 2.41.
As for `CCN(C)C=Nc1cc(C)c(-c2ccc(C(C)(C)C)cc2)cc1C` [compound 446], the log p acidic came to 2.69 and the log p neutral was determined as 6.30.
Turning to `Cc1cc(Oc2ccc(Cl)c(C(C)C)c2)c(C)cc1N=CN(C)C(C)C` [compound 401], the log p neutral worked out at 7.36.
Compound `CCN(C)C=Nc1cc(C)c(Oc2ccc(Cl)c(C(C)(C)C)c2)cc1C` [compound 50] registered a log p acidic of 2.69 and a log p neutral of 5.96.
The compound `CCN(C)C=Nc1cc(C)c(Oc2ccc(C#N)c(C(F)(F)F)c2)cc1C` [compound 226] came in with a log p acidic of 1.68.
Consider `CCC(C)N(C)C=Nc1cc(Cl)c(Oc2ccc(Cl)c(C(C)C)c2)cc1C` (stereo not drawn) [compound 573], for which the log p acidic stood at 2.90, the “log p HCO2H” value is on record as 2.90 and the log p neutral is given as 7.14.
`CCN(C)C=Nc1cc(C)c(Oc2nc(C(C)C)ns2)cc1C` [compound 547] had a log p acidic of 1.74 and a log p neutral of 4.33.
`CCN(C)C=Nc1cc(C)c(Oc2ccc(C(C)(C)C)cc2)cc1Cl` [compound 884]: the “log p H3PO4” value was 2.87, the “log p HCO2H” value was 2.69 and the log p neutral came to 5.86.
With `CCc1cc(Oc2cc(C)c(N=CN(C)CC)cc2Cl)ccc1Cl` [compound 583], the “log p HCO2H” value is on record as 2.78 and the log p neutral is recorded as 6.09.
As to `CCN(C)C=Nc1cc(C)c(Oc2cccc(C(C)C)c2)cc1Cl` [compound 875], the “log p H3PO4” value turned out to be 2.56, the “log p HCO2H” value was 2.38 and the log p neutral stood at 5.51.
The compound `CCN(C)C=Nc1cc(C)c(Oc2cccc(C(C)(CC)OC)c2)cc1C` (stereo not drawn) [compound 502] returned a log p acidic of 2.30.
Consider `Cc1cc(N=CN2CCCCC2)c(Cl)cc1Oc1ccc(C(C)C)cc1` [compound 891], for which the “log p H3PO4” value was found to be 2.82, the “log p HCO2H” value was found to be 2.64 and the log p neutral worked out at 6.21.
On to `Cc1cc(N=CN2CCCCC2)c(Cl)cc1Oc1cccc(C(C)C)c1` [compound 878], for which the “log p H3PO4” value came out at 2.77, the “log p HCO2H” value is on record as 2.62 and the log p neutral is reported as 6.14.
For `CCN(C)C=Nc1cc(OC)c(Oc2ccc(Cl)c(C(C)(C)C)c2)cc1C` [compound 733], the log p acidic is reported as 2.75.
In turn, `CCCN(C)C=Nc1cc(Cl)c(Oc2cc(C(C)C)nn2C)cc1C` [compound 603] returned a log p acidic of 1.78 and a log p neutral of 4.52.
For `CCN(C)C=Nc1cc(Cl)c(Oc2cc(C(C)(C)C)nn2C)cc1C` [compound 596], the log p acidic was determined as 1.84, the “log p HCO2H” value was determined as 1.84 and the log p neutral is 4.41.
As for `CCN(C)C=Nc1cc(C)c(Oc2ccc(C(C)C)cc2)cc1Cl` [compound 888], the “log p H3PO4” value was determined as 2.61, the “log p HCO2H” value is 2.45 and the log p neutral is 5.58.
`CCN(C)C=Nc1cc(C)c(Oc2ccc3ccccc3c2)cc1C` [compound 538] came in with a log p acidic of 2.38.
In the case of `CCN(C)C=Nc1cc(C)c(C=Cc2ccccc2C)cc1C` [compound 270], the “log p HCO2H” value worked out at 2.21.
For `CCN(C)C=Nc1cc(C(F)(F)F)c(Oc2ccc(Cl)c(C(F)(F)F)c2)cc1Cl` [compound 948], the “log p H3PO4” value came to 2.87, the “log p HCO2H” value is 2.98 and the log p neutral was found to be 5.74.
On to `CCN(C)C=Nc1cc(C)c(Oc2ccc(Cl)c(C(C)C)c2)cc1Cl` [compound 898], for which the “log p H3PO4” value worked out at 2.88, the “log p HCO2H” value came out at 2.78 and the log p neutral came to 6.12.
Turning to `Cc1cc(-c2ccc(Cl)cc2)c(F)cc1N=CN(C)C(C)C` [compound 665], the “log p H3PO4” value was 2.22.
`CCN(C)C=Nc1cc(F)c(-c2ccc(C(C)(C)C)cc2)cc1F` [compound 846] displayed a log p acidic of 2.79.
In the case of `Clc1cc(Oc2ccccc2)c(Cl)cc1N=CN1CCCCC1` [compound 804], the “log p H3PO4” value was 2.03, the “log p HCO2H” value was determined as 2.12 and the log p neutral is 5.09.
Take `CCCN(C)C=Nc1cc(Cl)c(Oc2ccc(Br)c(C(C)C)c2)cc1C` [compound 590]: the log p acidic is 2.93 and the log p neutral is recorded as 7.01.
With `CCCN(C)C=Nc1cc(Cl)c(Oc2ccc(Cl)c(CC)c2)cc1C` [compound 584], the “log p HCO2H” value is listed as 2.84 and the log p neutral turned out to be 6.54.
On to `Cc1cc(Oc2cc(C(C)C)nn2C)c(Cl)cc1N=CN1CCCCC1C` (stereo not drawn) [compound 606], for which the log p acidic turned out to be 1.79 and the log p neutral was found to be 4.75.
As for `Cc1cc(Oc2cccc(C(C)(C)C)c2)c(C)cc1N=CN(C)C(C)C` [compound 440], the log p acidic is 2.96 and the “log p HCO2H” value was found to be 2.72.
Regarding `CCN(C)C=Nc1cc(C)c(-c2ccc(Cl)c(C(F)(F)F)c2)cc1Cl` [compound 928], the log p acidic is given as 2.3 and the log p neutral is recorded as 5.31.
With `CC(C)N(C)C=Nc1cc(Cl)c(Oc2ccccc2)cc1Cl` [compound 802], the “log p H3PO4” value is 2, the “log p HCO2H” value was found to be 2.08 and the log p neutral was determined as 4.84.
Turning to `CC(C)N(C)C=Nc1cc(C(F)(F)F)c(Oc2ccc(Cl)c(C(F)(F)F)c2)cc1Cl` [compound 949], the “log p H3PO4” value is given as 2.82, the “log p HCO2H” value turned out to be 3.08 and the log p neutral is listed as 6.
The compound `CCN(C)C=Nc1cc(C)c(Oc2cc(Cl)cc(C(C)C)n2)cc1C` [compound 407] registered a log p acidic of 2.18.
As to `CCN(C)C=Nc1cc(Cl)c(Oc2ccccc2)cc1Cl` [compound 801], the “log p H3PO4” value turned out to be 1.86, the “log p HCO2H” value turned out to be 1.91 and the log p neutral is 4.49.
The corresponding values for `CCN(C)C=Nc1cc(C)c(Oc2ccc(Cl)c(C(F)(F)F)c2)cc1Cl` [compound 893] are 2.51, 2.44 and 5.49.
`Cc1cc(Oc2cc(Cl)cc(Br)c2)c(C)cc1N=CN(C)C(C)C` [compound 328] returned a log p acidic of 2.70 and a log p neutral of 6.81.
